What was measured:
[1] = system: human umbilical vascular endothelial cells (HUVEC); experiment: HUVEC culture on two-dimensional biomatrix environments; type: cell-based; settings: FGF 15 ng/ml, two-dimensional HuBiogel matrix
Procedure: […] The specific morphological changes in the monolayer HUVEC cultures was examined after 72 hrs incubation on each biomatrix environment. HUVECs cultured on plastic or purified collagen I grew poorly (<60% viability). […] Tubular capillary formation is confirmed by cross-sectional electron microscopy showing distinct lumen.

HUVEC = HUVEC migration and differentiation in three-dimensional HuBiogel disc culture system; type: cell-based, human; settings: FGF 60 ng/ml added day 0, 5 mg/ml HuBiogel disc, 50 um pore size
Procedure: Endothelial cells were cultured under standard conditions. On day 0, FGF (60 ng/ml) was added to the culture and incubation continued. At the indicated times, cell morphology was examined and documented. […] There is no differentiation of the cells until the day 5-day 7 time period. After day 7, obvious differentiation as indicated by sprout formation/capillary formation can be seen. […] Such a temporally discrete timing of the activation migration and differentiation steps make the use of this system ideal for studying the biochemical mechanisms involved in each step, as well as isolating potential inhibitors of the mechanisms identified. This time dependent, temporally isolated sequence of events is in contrast to that seen with Matrigel, where differentiation events occur rapidly in the absence of added growth factors and/or growth stimulants.

[2] = system: mesenchymal stem cells (MSC); experiment: Mesenchymal stem cell culture on HuBiogel; type: cell-based; settings: NGF 15 ng/ml
Procedure: Other cell type may also be grown on HuBiogel™ matrices, with the above being exemplary in nature only. Theses other cell types include neurons, hepatocytes, sertoli cells and the like. For Example, FIGS. 11A and B show glioma cells cultured on HuBiogel™ containing matrices. […] FIGS. 12A and B show mesenchymal stem cells (MSC) cells cultured on HuBiogel™ in the presence (FIG. 12B) and absence of 15 ng/ml NGF (FIG. 12A).

Row | Substance | HUVEC differentiation on HuBiogel enriched with growth factor [1] | growth factor induced HUVEC activation, migration and differentiation (HUVEC) | neuronal differentiation of MSC on HuBiogel [2]
1 | FGF: fibroblast growth factor, purified angiogenic factor added to HuBiogel | rapid formation of tubule-like structures | induced a time dependent series of cellular activation, migration and differentiation steps | 
2 | NGF: nerve growth factor |  |  | neuronal differentiation occurred only in the presence of NGF

Reference: patent publication US7727550B2, “Biologically active native biomatrix composition” (The UAB Research Foundation, priority 2003, dated 2010)
